PubChem BioAssay (NCI)
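Growth conditions: 96-well plates. Treatment: test compound, 48 hours, 5 concentrations. Analysis: linear interpolation between bracketing concentrations; unreached endpoints set to highest concentration. TGI: concentration producing complete growth inhibition.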

Tests used:
Assay in all cases: DTP human tumour cell line panel, 48 h
CCRF-CEM leukemia = tested on: CCRF-CEM leukemia
COLO 205 colon = tested on: COLO 205 colon
MCF7 breast = tested on: MCF7 breast
NCI/ADR-RES ovarian = tested on: NCI/ADR-RES ovarian
NCI-H226 lung = tested on: NCI-H226 lung
HT29 colon = tested on: HT29 colon
OVCAR-5 ovarian = tested on: OVCAR-5 ovarian
MDA-MB-435 = tested on: MDA-MB-435
HCT-15 colon = tested on: HCT-15 colon
TK-10 renal = tested on: TK-10 renal
RXF 393 renal = tested on: RXF 393 renal
DU-145 prostate = tested on: DU-145 prostate
SK-MEL-28 melanoma = tested on: SK-MEL-28 melanoma
UACC-257 melanoma = tested on: UACC-257 melanoma
PC-3 prostate = tested on: PC-3 prostate
SNB-75 CNS = tested on: SNB-75 CNS
ACHN renal = tested on: ACHN renal
MALME-3M melanoma = tested on: MALME-3M melanoma
K-562 leukemia = tested on: K-562 leukemia
MDA-MB-231 breast = tested on: MDA-MB-231 breast
A498 renal = tested on: A498 renal
SF-539 CNS = tested on: SF-539 CNS
OVCAR-8 ovarian = tested on: OVCAR-8 ovarian
OVCAR-4 ovarian = tested on: OVCAR-4 ovarian
KM12 colon = tested on: KM12 colon
SK-OV-3 ovarian = tested on: SK-OV-3 ovarian
UACC-62 melanoma = tested on: UACC-62 melanoma
LOX IMVI melanoma = tested on: LOX IMVI melanoma
SR leukemia = tested on: SR leukemia
HS 578T breast = tested on: HS 578T breast
UO-31 renal = tested on: UO-31 renal
786-0 renal = tested on: 786-0 renal
HCT-116 colon = tested on: HCT-116 colon
SW-620 colon = tested on: SW-620 colon
HL-60(TB) leukemia = tested on: HL-60(TB) leukemia
EKVX NSCLC = tested on: EKVX NSCLC
HOP-92 NSCLC = tested on: HOP-92 NSCLC
T-47D breast = tested on: T-47D breast
SF-268 CNS = tested on: SF-268 CNS
MDA-N = tested on: MDA-N
CAKI-1 renal = tested on: CAKI-1 renal
NCI-H522 lung = tested on: NCI-H522 lung
SNB-19 CNS = tested on: SNB-19 CNS
U251 CNS = tested on: U251 CNS
MOLT-4 leukemia = tested on: MOLT-4 leukemia
SN12C renal = tested on: SN12C renal
SK-MEL-2 melanoma = tested on: SK-MEL-2 melanoma
NCI-H23 lung = tested on: NCI-H23 lung
IGROV1 ovarian = tested on: IGROV1 ovarian
BT-549 breast = tested on: BT-549 breast
SF-295 CNS = tested on: SF-295 CNS
OVCAR-3 ovarian = tested on: OVCAR-3 ovarian
HOP-62 NSCLC = tested on: HOP-62 NSCLC
SK-MEL-5 melanoma = tested on: SK-MEL-5 melanoma
M14 melanoma = tested on: M14 melanoma
NCI-H460 lung = tested on: NCI-H460 lung
A549 NSCLC = tested on: A549 NSCLC
RPMI-8226 leukemia = tested on: RPMI-8226 leukemia
HCC-2998 colon = tested on: HCC-2998 colon

Measured: TGI

Nc1nc(Cl)cc(NCC2(CO)CCC(O)C2)n1 (centres undefined)
> 100 µM: CCRF-CEM leukemia | COLO 205 colon | MCF7 breast | NCI/ADR-RES ovarian | NCI-H226 lung | HT29 colon | OVCAR-5 ovarian | MDA-MB-435 | HCT-15 colon | TK-10 renal | RXF 393 renal | DU-145 prostate | SK-MEL-28 melanoma | UACC-257 melanoma | PC-3 prostate | SNB-75 CNS | ACHN renal | MALME-3M melanoma | K-562 leukemia | MDA-MB-231 breast | A498 renal | SF-539 CNS | OVCAR-8 ovarian | OVCAR-4 ovarian | KM12 colon | SK-OV-3 ovarian | UACC-62 melanoma | LOX IMVI melanoma | SR leukemia | HS 578T breast | UO-31 renal | 786-0 renal | HCT-116 colon | SW-620 colon | HL-60(TB) leukemia | EKVX NSCLC | HOP-92 NSCLC | T-47D breast | SF-268 CNS | MDA-N | CAKI-1 renal | NCI-H522 lung | SNB-19 CNS | U251 CNS | MOLT-4 leukemia | SN12C renal | SK-MEL-2 melanoma | NCI-H23 lung | IGROV1 ovarian | BT-549 breast | SF-295 CNS | OVCAR-3 ovarian | HOP-62 NSCLC | SK-MEL-5 melanoma | M14 melanoma | NCI-H460 lung | A549 NSCLC | RPMI-8226 leukemia

Cn1c(=O)c2c(nc(N)n2C2OC(CO)C(O)C2O)n(C)c1=O (centres undefined)
> 100 µM: CCRF-CEM leukemia | COLO 205 colon | MCF7 breast | NCI/ADR-RES ovarian | NCI-H226 lung | HT29 colon | OVCAR-5 ovarian | MDA-MB-435 | HCT-15 colon | TK-10 renal | RXF 393 renal | DU-145 prostate | SK-MEL-28 melanoma | UACC-257 melanoma | PC-3 prostate | SNB-75 CNS | ACHN renal | MALME-3M melanoma | K-562 leukemia | MDA-MB-231 breast | A498 renal | SF-539 CNS | OVCAR-8 ovarian | OVCAR-4 ovarian | KM12 colon | SK-OV-3 ovarian | UACC-62 melanoma | LOX IMVI melanoma | SR leukemia | HS 578T breast | UO-31 renal | HCC-2998 colon | 786-0 renal | HCT-116 colon | SW-620 colon | HL-60(TB) leukemia | EKVX NSCLC | HOP-92 NSCLC | T-47D breast | SF-268 CNS | MDA-N | CAKI-1 renal | NCI-H522 lung | SNB-19 CNS | U251 CNS | MOLT-4 leukemia | SN12C renal | NCI-H23 lung | IGROV1 ovarian | BT-549 breast | SF-295 CNS | OVCAR-3 ovarian | HOP-62 NSCLC | SK-MEL-5 melanoma | M14 melanoma | NCI-H460 lung | A549 NSCLC | RPMI-8226 leukemia

COC(=O)[C@@H]1C2OC(C)(C)OC2CN1C(=O)OCc1ccccc1 (some centres undefined)
> 100 µM: COLO 205 colon | MCF7 breast | NCI/ADR-RES ovarian | NCI-H226 lung | HT29 colon | OVCAR-5 ovarian | MDA-MB-435 | HCT-15 colon | TK-10 renal | RXF 393 renal | DU-145 prostate | SK-MEL-28 melanoma | UACC-257 melanoma | PC-3 prostate | SNB-75 CNS | ACHN renal | MALME-3M melanoma | K-562 leukemia | MDA-MB-231 breast | A498 renal | SF-539 CNS | OVCAR-8 ovarian | OVCAR-4 ovarian | KM12 colon | SK-OV-3 ovarian | UACC-62 melanoma | LOX IMVI melanoma | SR leukemia | HS 578T breast | UO-31 renal | HCC-2998 colon | 786-0 renal | HCT-116 colon | SW-620 colon | HL-60(TB) leukemia | EKVX NSCLC | HOP-92 NSCLC | T-47D breast | SF-268 CNS | MDA-N | CAKI-1 renal | NCI-H522 lung | SNB-19 CNS | U251 CNS | MOLT-4 leukemia | SN12C renal | SK-MEL-2 melanoma | NCI-H23 lung | IGROV1 ovarian | BT-549 breast | SF-295 CNS | OVCAR-3 ovarian | HOP-62 NSCLC | SK-MEL-5 melanoma | M14 melanoma | NCI-H460 lung | A549 NSCLC | RPMI-8226 leukemia
